Key:
[1] = test system: human lymphoma cell line RAMOS cells; assay: Cell growth inhibition test using RAMOS cell, ATP assay (CellTiter-Glo); type: cell-based; details: Homo sapiens, Ramos, 72 h, cultured 3 days, 50% growth inhibition concentration
Procedure: A cell growth inhibition test was carried out by treating human lymphoma cell line RAMOS cells with a test compound for a given period and then counting the number of viable cells by MTT assay or CellTiter-Glo Luminescent Cell Viability Assay (manufactured by Promega Corp.; hereinafter, referred to as ATP assay).
RAMOS cells were inoculated at 4000 cells/40 μL/well to a 384-well plate containing the compound prepared in advance at predetermined concentrations. The cells thus inoculated were cultured at 37° C. for 3 days under 5% CO2. In order to measure a cell survival rate, CellTiter-Glo Reagent was added in an amount corresponding to 1/4 of the amount of the culture solution at the day of cell inoculation and at the final culture date and stirred at room temperature for 2 minutes. Then, luminescence intensity was measured using a plate reader. The cell survival rate was calculated according to the expression given below.
The number of viable cells and luminescence intensity have been confirmed to correlate with each other. Therefore, the rate of cell growth was calculated according to the following expression: Rate of cell growth (T/C %) of a test compound-supplemented well=100×[(B−C)/(A−C)] wherein A represents the luminescence intensity (final culture date) of a test compound-free well; B represents the luminescence intensity (final culture date) of a test compound-containing well; and C represents the luminescence intensity (day of cell inoculation) of a well at the start of contact of the cells with the test compound.
T/C % at each concentration of the test compound was determined. The concentration at which the test compound offered 50% growth rate was calculated as a GI50 value from the growth rates at two points interpolating 50% and the concentrations, and is shown in Table 56.

TIP48/TIP49 complex = biological target: T1, TIP48/TIP49 complex (Homo sapiens, UniProt Q9Y230+Q9Y265); assay: ATPase assay of TIP48/TIP49 complex (ADP-Glo); type: biochemical; details: concentration at which the ATPase activity was inhibited by 50%
T1 construct: made in house; host or cells: E. coli
Description: The ATPase activity of the TIP48/TIP49 complex can be measured by use of an ATPase assay described below in Test Examples 1 and 2. The ATPase activity of the TIP48/TIP49 complex can be measured, as described below in the Test Examples, for example, by using recombinant human TIP48 and TIP49 proteins (hereinafter, referred to as rTIP48 and rTIP49) and ATP in the presence or absence of a test compound and measuring the amount of ADP formed through hydrolysis by the ATPase activity of the TIP48/TIP49 complex, using ADP-Glo. Alternatively, the ATPase activity of the TIP48/TIP49 complex can be measured by a method described in, for example, J. Mol. Biol. 366, 172-179 (2007).
An ATPase assay of a TIP48/TIP49 complex was conducted using rTIP48 and rTIP49. Human TIP48 and TIP49 DNAs were purchased from Open Biosystems. Human TIP48 and TIP49 cDNAs cloned by PCR using the purchased DNAs were each integrated into plasmids for expression in E. coli and expressed in E. coli to obtain rTIP48 and rTIP49.
A test compound was dissolved at 10 mM using DMSO. The solution was diluted to 10 concentrations as 4-fold serial dilutions from 10 mM using DMSO.
A 2×assay buffer (100 mM Tris-HCl, pH 7.5, 100 mM NaCl, 40 mM MgCl2, 2 mM DTT, 20 μM ATP, and 0.2 mg/mL BSA) was dispensed at 24.5 μL/well to a 384-well assay plate.
Test compound solutions were dispensed thereto at 1 μL/well. Subsequently, the solution in each well was mixed using a plate mixer.
rTIP48 and rTIP49 were diluted to a concentration of 50 μg/mL using sterilized water. The diluted solution was dispensed at 24.5 μL/well to the 384-well assay plate. Subsequently, the solution in each well was mixed using a plate mixer (final concentration: 24.5 μg/mL) (concentration of each test compound solution: 200 μM, 50 μM, 12.5 μM, 3.12 μM, 0.78 μM, 0.20 μM, 0.049 μM, 0.012 μM, 0.003 μM, and 0.0007 μM; DMSO concentration: 2%).
After the mixing using the plate mixer, the assay plate was left standing at room temperature for 1.5 hours.
5 μL of the solution in each well was transferred to a white assay plate, and ADP-Glo Reagent from ADP-Glo Kinase Assay (Promega Corp., catalog No. V9101) was dispensed thereto at 5 μL/well. After completion of the reaction, the plate was left standing at room temperature for 40 minutes. Kinase Detection Reagent was further dispensed thereto at 5 μL/well, and the plate was left standing at room temperature for 30 minutes. Then, luminescence intensity was measured using a plate reader.
The ATPase inhibitory activity was calculated according to the expression given below.
The luminescence intensity of a well supplemented with the test compound and the TIP48/TIP49 complex was defined as A. The luminescence intensity of a well supplemented with only the TIP48/TIP49 complex was defined as B. The luminescence intensity of a well supplemented with neither the test compound nor the TIP48/TIP49 complex was defined as C. The ratio between the test compound-supplemented group and the test compound-nonsupplemented group (T/C value) was determined according to the following calculation expression:
The dose-response curve was calculated using GraphPad Prism 4 from the concentration of each of the serially diluted test compounds and the ATPase inhibitory activity (%) at this concentration.

T1 sequence (Q9Y230 whole entry): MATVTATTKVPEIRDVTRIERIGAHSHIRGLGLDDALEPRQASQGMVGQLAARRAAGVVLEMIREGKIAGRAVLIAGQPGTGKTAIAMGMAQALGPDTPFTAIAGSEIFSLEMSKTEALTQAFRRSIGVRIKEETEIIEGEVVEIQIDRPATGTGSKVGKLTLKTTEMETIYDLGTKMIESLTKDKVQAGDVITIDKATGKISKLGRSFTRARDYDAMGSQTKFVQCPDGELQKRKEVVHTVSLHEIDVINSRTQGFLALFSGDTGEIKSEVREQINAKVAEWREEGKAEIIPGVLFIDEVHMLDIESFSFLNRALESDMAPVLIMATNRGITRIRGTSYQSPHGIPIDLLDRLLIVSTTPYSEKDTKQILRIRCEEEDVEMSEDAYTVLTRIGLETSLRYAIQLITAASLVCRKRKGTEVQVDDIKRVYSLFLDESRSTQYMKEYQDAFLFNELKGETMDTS
T1 sequence (Q9Y265 whole entry): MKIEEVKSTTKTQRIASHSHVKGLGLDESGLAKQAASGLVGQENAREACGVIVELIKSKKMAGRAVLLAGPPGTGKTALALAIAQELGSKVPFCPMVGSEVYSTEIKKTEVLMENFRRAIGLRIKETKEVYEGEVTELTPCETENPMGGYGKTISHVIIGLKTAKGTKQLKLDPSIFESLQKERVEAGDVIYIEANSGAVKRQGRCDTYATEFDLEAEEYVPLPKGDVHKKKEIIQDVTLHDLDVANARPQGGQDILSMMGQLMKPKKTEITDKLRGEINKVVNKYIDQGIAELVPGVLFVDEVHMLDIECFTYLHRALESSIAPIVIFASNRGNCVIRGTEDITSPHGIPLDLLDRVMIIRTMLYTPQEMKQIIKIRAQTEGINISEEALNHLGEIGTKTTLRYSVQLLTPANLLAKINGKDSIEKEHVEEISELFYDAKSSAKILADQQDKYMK

SMILES | GI50 [1] [nM] | IC50 (TIP48/TIP49 complex) [nM]
CCOc1ccc(Cl)cc1C(=O)NCC(C)(C)CC(=O)Nc1c(CCN(C)CCF)n(C)n(-c2ccccc2)c1=O [Example 36, 5-Chloro-2-ethoxy-N-{4-[(5-{2-[2-fluoroethyl(methyl)amino]ethyl}-1-methyl-3-oxo-2-phenyl-2,3-dihydro-1H-pyrazol-4-yl)amino]-2,2-dimethyl-4-oxobutyl}benzamide] | 120 | 24
CCOc1ncc(Cl)cc1C(=O)NCC(C)(C)CC(=O)Nc1c(CCN(C)C)n(CC)n(-c2ccccc2)c1=O [Example 42, 5-Chloro-N-[4-({5-[2-(dimethylamino)ethyl]-1-ethyl-3-oxo-2-phenyl-2,3-dihydro-1H-pyrazol-4-yl}amino)-2,2-dimethyl-4-oxobutyl]-2-ethoxypyridine-3-carboxamide] | 150 | 80
[2H]C([2H])([2H])n1c(CCN(C)C)c(NC(=O)CC(C)(C)CNC(=O)c2cc(Cl)ccc2OCC)c(=O)n1-c1ccccc1 [Example 43, 5-Chloro-N-[4-({3-[2-(dimethylamino)ethyl]-5-oxo-1-phenyl-2-(trideuteriomethyl)pyrazol-4-yl}amino)-2,2-dimethyl-4-oxobutyl]-2-ethoxybenzamide] | 190 | 60
[2H]C([2H])([2H])n1c(CCN(C)C)c(NC(=O)CC(C)(C)CNC(=O)c2cc(Br)cnc2OCC)c(=O)n1-c1ccccc1 [Example 44, 5-Bromo-N-[4-({3-[2-(dimethylamino)ethyl]-5-oxo-1-phenyl-2-(trideuteriomethyl)-2,3-dihydro-1H-pyrazol-4-yl}amino)-2,2-dimethyl-4-oxobutyl]-2-ethoxypyridine-3-carboxamide] | 470 | 150
CCOc1ccc(Cl)cc1C(=O)NCC(C)(C)CC(=O)Nc1c(CCN(C)C)n(C)n(-c2ccccc2F)c1=O [Example 45, 5-Chloro-N-[4-({3-[2-(dimethylamino)ethyl]-1-(2-fluorophenyl)-2-methyl-5-oxopyrazol-4-yl}amino)-2,2-dimethyl-4-oxobutyl]-2-ethoxybenzamide] | 480 | 77
Cc1cc2cc(Cl)cc(C(=O)NCC(C)(C)CC(=O)Nc3c(CCN(C)C)n(C)n(-c4ccccc4F)c3=O)c2o1 [Example 46, 5-Chloro-N-[4-({3-[2-(dimethylamino)ethyl]-1-(2-fluorophenyl)-2-methyl-5-oxo-1,5-dihydro-1H-pyrazol-4-yl}amino)-2,2-dimethyl-4-oxobutyl]-2-methylbenzofuran-7-carboxamide] | 470 | 81
CCOc1ccc(Cl)cc1C(=O)NCC(C)(C)CC(=O)Nc1c(CCN(C)C)n(C)n(-c2cccc(Cl)n2)c1=O [Example 47, 5-Chloro-N-(4-{[1-(6-chloro-2-pyridyl)-3-(2-dimethylamino)ethyl]-2-methyl-5-oxopyrazol-4-yl}amino-2,2-dimethyl-4-oxobutyl)-2-ethoxybenzamide] | 250 | 37

Other lines, results leading:

GI50 [1] [nM] | IC50 (TIP48/TIP49 complex) [nM] | SMILES
470 | 56 | CCOc1cc(F)c(Cl)cc1C(=O)NCC(C)(C)CC(=O)Nc1c(CCNC)n(C)n(-c2ccccc2)c1=O [Example 34, 5-Chloro-N-[2,2-dimethyl-4-({1-methyl-5-[2-(methylamino)ethyl]-3-oxo-2-phenyl-2,3-dihydro-1H-pyrazol-4-yl}amino)-4-oxobutyl]-2-ethoxy-4-fluorobenzamide]
120 | 38 | CCOc1cc(F)c(Cl)cc1C(=O)NCC(C)(C)CC(=O)Nc1c(CCN(C)CCF)n(C)n(-c2ccccc2)c1=O [Example 37, 5-Chloro-2-ethoxy-4-fluoro-N-{4-[(5-{2-[2-fluoroethyl(methyl)amino]ethyl}-1-methyl-3-oxo-2-phenyl-2,3-dihydro-1H-pyrazol-4-yl)amino]-2,2-dimethyl-4-oxobutyl}benzamide]
210 | 77 | CCOc1cc(F)c(Cl)cc1C(=O)NCC(C)(C)CC(=O)Nc1c(CCN(C)CC(F)(F)F)n(C)n(-c2ccccc2)c1=O [Example 38, 5-Chloro-N-{2,2-dimethyl-4-[(1-methyl-5-{2-[methyl(2,2,2-trifluoroethyl)amino]ethyl}-3-oxo-2-phenyl-2,3-dihydro-1H-pyrazol-4-yl)amino]-4-oxobutyl}-2-ethoxy-4-fluorobenzamide]
98 | 20 | CCOc1cc(F)c(Cl)cc1C(=O)NCC(C)(C)CC(=O)Nc1c(CCN(C)C)n(CC)n(-c2ccccc2)c1=O [Example 41, 5-Chloro-N-[4-({5-[2-(dimethylamino)ethyl]-1-ethyl-3-oxo-2-phenyl-2,3-dihydro-1H-pyrazol-4-yl}amino)-2,2-dimethyl-4-oxobutyl]-2-ethoxy-4-fluorobenzamide]
160 | 61 | CCOc1ccc(Cl)cc1C(=O)NCC(C)(C)CC(=O)Nc1c(C[C@@H](C)N(C)C)n(C)n(-c2ccccc2)c1=O [Example 48, 5-Chloro-N-[4-({5-[(2R)-2-(dimethylamino)propyl]-1-methyl-3-oxo-2-phenyl-2,3-dihydro-1H-pyrazol-4-yl}amino)-2,2-dimethyl-4-oxobutyl]-2-ethoxybenzamide]
160 | 69 | CCOc1cc(F)c(Cl)cc1C(=O)NCC(C)(C)CC(=O)Nc1c(C[C@@H](C)N(C)C)n(C)n(-c2ccccc2)c1=O [Example 49, 5-Chloro-N-[4-({5-[(2R)-2-(dimethylamino)propyl]-1-methyl-3-oxo-2-phenyl-2,3-dihydro-1H-pyrazol-4-yl}amino)-2,2-dimethyl-4-oxobutyl]-2-ethoxy-4-fluorobenzamide]
210 | 50 | Cc1cc2cc(Cl)cc(C(=O)NCC(C)(C)CC(=O)Nc3c(C[C@@H](C)N(C)C)n(C)n(-c4ccccc4)c3=O)c2o1 [Example 50, 5-Chloro-N-[4-({5-[(2R)-2-(dimethylamino)propyl]-1-methyl-3-oxo-2-phenyl-2,3-dihydro-1H-pyrazol-4-yl}amino)-2,2-dimethyl-4-oxobutyl]-2-methylbenzofuran-7-carboxamide]
140 | 71 | CCOc1ccc(Cl)cc1C(=O)NCC(C)(C)CC(=O)Nc1c(C[C@H](C)N(C)C)n(C)n(-c2ccccc2)c1=O [Example 51, 5-Chloro-N-[4-({5-[(2S)-2-(dimethylamino)propyl]-1-methyl-3-oxo-2-phenyl-2,3-dihydro-1H-pyrazol-4-yl}amino)-2,2-dimethyl-4-oxobutyl]-2-ethoxybenzamide]
120 | 36 | CCOc1cc(F)c(Cl)cc1C(=O)NCC(C)(C)CC(=O)Nc1c(C[C@H](C)N(C)C)n(C)n(-c2ccccc2)c1=O [Example 52, 5-Chloro-N-[4-({5-[(2S)-2-(dimethylamino)propyl]-1-methyl-3-oxo-2-phenyl-2,3-dihydro-1H-pyrazol-4-yl}amino)-2,2-dimethyl-4-oxobutyl]-2-ethoxy-4-fluorobenzamide]

Reference: patent US20170107207A1, “AMINOPYRAZOLONE DERIVATIVE” (DAIICHI SANKYO COMPANY, LIMITED, priority 2014, published 2017)
